How the values were obtained:
SK-OV-3 = test: Inhibition of cells growth by colorimetric (SRB) assay, SK-OV-3; conditions: for GI50 / CC50: Homo sapiens, SK-OV-3, 48 h; for GI50: read-out: GI50 SKOV-3, SRB assay, 48 hours exposure; for CC50: read-out: LC50 SKOV-3, SRB assay, 48 hours exposure; for TGI SKOV-3: SRB assay, 48 hours exposure
How it was run: (§1)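 Human tumour cells seeded at 5×10^3/well in RPMI 1640 10% FBS, attached 18 h, then exposed 48 h to samples at 10 to 10^−8 μg/ml in DMSO/EtOH/PBS (0.5:0.5:99). Growth read by SRB staining after TCA fixation, OD 490 nm, triplicate wells; GI, TGI and LC derived.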

DU-145 = test: Inhibition of cells growth by colorimetric (SRB) assay, DU-145; conditions: for GI50 / CC50: Homo sapiens, DU-145, 48 h; for GI50: read-out: GI50 DU-145, SRB assay, 48 hours exposure; for CC50: read-out: LC50 DU-145, SRB assay, 48 hours exposure; for TGI DU-145: SRB assay, 48 hours exposure
How it was run: as §1

PANC-1 = test: Inhibition of cells growth by colorimetric (SRB) assay, PANC-1; conditions: for GI50 / CC50: Homo sapiens, PANC-1, 48 h; for GI50: read-out: GI50 PANC-1, SRB assay, 48 hours exposure; for CC50: read-out: LC50 PANC-1, SRB assay, 48 hours exposure; for TGI PANC-1: SRB assay, 48 hours exposure
How it was run: as §1

SK-MEL-28 = test: Inhibition of cells growth by colorimetric (SRB) assay, SK-MEL-28; conditions: for GI50 / CC50: Homo sapiens, SK-MEL-28, 48 h; for GI50: read-out: GI50 MEL-28, SRB assay, 48 hours exposure; for CC50: read-out: LC50 MEL-28, SRB assay, 48 hours exposure; for TGI MEL-28: SRB assay, 48 hours exposure
How it was run: as §1

SK-BR-3 = test: Inhibition of cells growth by colorimetric (SRB) assay, SK-BR-3; conditions: for GI50 / CC50: Homo sapiens, SK-BR-3, 48 h; for GI50: read-out: GI50 SK-BR-3, SRB assay, 48 hours exposure; for CC50: read-out: LC50 SK-BR-3, SRB assay, 48 hours exposure; for TGI SK-BR-3: SRB assay, 48 hours exposure
How it was run: as §1

HT-29 = test: Inhibition of cells growth by colorimetric (SRB) assay, HT-29; conditions: for GI50 / CC50: Homo sapiens, HT-29, 48 h; for GI50: read-out: GI50 HT-29, SRB assay, 48 hours exposure; for CC50: read-out: LC50 HT-29, SRB assay, 48 hours exposure; for TGI HT-29: SRB assay, 48 hours exposure
How it was run: as §1

HMEC1 = test: Inhibition of cells growth by colorimetric (SRB) assay, HMEC1; conditions: for GI50: Homo sapiens, HMEC-1, 48 h, read-out: GI50 H-MEC-1, SRB assay, 48 hours exposure; for TGI H-MEC-1: SRB assay, 48 hours exposure, in M (unit assumed)
[1] = as above; conditions: human, HMEC1 cells, LC50 H-MEC-1, SRB assay, 48 hours exposure
LoVo-Dox = test: Inhibition of cells growth by colorimetric (SRB) assay, LoVo-Dox; conditions: for GI50 / CC50: Homo sapiens, 48 h; for GI50: read-out: GI50 LOVO-DOX, SRB assay, 48 hours exposure; for CC50: read-out: LC50 LOVO-DOX, SRB assay, 48 hours exposure; for TGI LOVO-DOX: SRB assay, 48 hours exposure
How it was run: as §1

IGROV-1 = test: Inhibition of cells growth by colorimetric (SRB) assay, IGROV-1; conditions: for GI50 / CC50: Homo sapiens, IGROV-1, 48 h; for GI50: read-out: GI50 IGROV, SRB assay, 48 hours exposure; for CC50: read-out: LC50 IGROV, SRB assay, 48 hours exposure; for TGI IGROV: SRB assay, 48 hours exposure
How it was run: as §1

IGROV-ET = test: Inhibition of cells growth by colorimetric (SRB) assay, IGROV-ET; conditions: for GI50 / CC50: Homo sapiens, 48 h; for GI50: read-out: GI50 IGROV-ET, SRB assay, 48 hours exposure; for CC50: read-out: LC50 IGROV-ET, SRB assay, 48 hours exposure; for TGI IGROV-ET: SRB assay, 48 hours exposure
How it was run: as §1

K-562 = test: Inhibition of cells growth by colorimetric (SRB) assay, K-562; conditions: for GI50 / CC50: Homo sapiens, K562, 48 h; for GI50: read-out: GI50 K-562, SRB assay, 48 hours exposure; for CC50: read-out: LC50 K-562, SRB assay, 48 hours exposure; for TGI K-562: SRB assay, 48 hours exposure
How it was run: as §1

LoVo = test: Inhibition of cells growth by colorimetric (SRB) assay, LoVo; conditions: for GI50 / CC50: Homo sapiens, LoVo, 48 h; for GI50: read-out: GI50 LOVO, SRB assay, 48 hours exposure; for CC50: read-out: LC50 LOVO, SRB assay, 48 hours exposure; for TGI LOVO: SRB assay, 48 hours exposure
How it was run: as §1

A-549 = test: Inhibition of cells growth by colorimetric (SRB) assay, A-549; conditions: for GI50 / CC50: Homo sapiens, A549, 48 h; for GI50: read-out: GI50 A-549, SRB assay, 48 hours exposure; for CC50: read-out: LC50 A-549, SRB assay, 48 hours exposure; for TGI A-549: SRB assay, 48 hours exposure
How it was run: as §1

LNCaP = test: Inhibition of cells growth by colorimetric (SRB) assay, LNCaP; conditions: for GI50 / CC50: Homo sapiens, LNCaP, 48 h; for GI50: read-out: GI50 LN-caP, SRB assay, 48 hours exposure; for CC50: read-out: LC50 LN-caP, SRB assay, 48 hours exposure; for TGI LN-caP: SRB assay, 48 hours exposure
How it was run: as §1

Compound: Nc1nccc(-c2c3cc(F)c(Cl)nc3n3c(N)nccc23)n1 [Compound 50]
- GI50 (SK-OV-3): 15.8 µM
- CC50 (SK-OV-3): ≥ 30.3 µM
- TGI SKOV-3 (SK-OV-3): 3.03E−05
- GI50 (DU-145): 16.5 µM
- CC50 (DU-145): ≥ 30.3 µM
- TGI DU-145 (DU-145): 3.03E−05
- GI50 (PANC-1): ≥ 30.3 µM
- CC50 (PANC-1): ≥ 30.3 µM
- TGI PANC-1 (PANC-1): 3.03E−05
- GI50 (SK-MEL-28): ≥ 30.3 µM
- CC50 (SK-MEL-28): ≥ 30.3 µM
- TGI MEL-28 (SK-MEL-28): 3.03E−05
- GI50 (SK-BR-3): 11.6 µM
- CC50 (SK-BR-3): ≥ 30.3 µM
- TGI SK-BR-3 (SK-BR-3): 3.03E−05
- GI50 (HT-29): ≥ 30.3 µM
- CC50 (HT-29): ≥ 30.3 µM
- TGI HT-29 (HT-29): 3.03E−05
- GI50 (HMEC1): 8.01 µM
- TGI H-MEC-1 (HMEC1): 2.44E−05
- CC50 at 48 h [1]: ≥ 30.3 µM
- GI50 (LoVo-Dox): 12.6 µM
- CC50 (LoVo-Dox): ≥ 30.3 µM
- TGI LOVO-DOX (LoVo-Dox): 3.03E−05
- GI50 (IGROV-1): 20.3 µM
- CC50 (IGROV-1): ≥ 30.3 µM
- TGI IGROV (IGROV-1): 3.03E−05
- GI50 (IGROV-ET): 12.9 µM
- CC50 (IGROV-ET): ≥ 30.3 µM
- TGI IGROV-ET (IGROV-ET): 3.03E−05
- GI50 (K-562): ≥ 30.3 µM
- CC50 (K-562): ≥ 30.3 µM
- TGI K-562 (K-562): 3.03E−05
- GI50 (LoVo): 12 µM
- CC50 (LoVo): ≥ 30.3 µM
- TGI LOVO (LoVo): 3.03E−05
- GI50 (A-549): 5.25 µM
- CC50 (A-549): ≥ 30.3 µM
- TGI A-549 (A-549): 3.03E−05
- GI50 (LNCaP): 0.886 µM
- CC50 (LNCaP): ≥ 30.3 µM
- TGI LN-caP (LNCaP): 1.88E−06

Compound: Cl.Nc1nccc(-c2c3cccnc3n3c(N)nccc23)n1 [Compound 51]
- GI50 (SK-OV-3): 0.146 µM
- CC50 (SK-OV-3): 28.6 µM
- TGI SKOV-3 (SK-OV-3): 2.15E−06
- GI50 (DU-145): 0.0654 µM
- CC50 (DU-145): 2.7 µM
- TGI DU-145 (DU-145): 1.48E−07
- GI50 (PANC-1): 0.161 µM
- CC50 (PANC-1): 28.6 µM
- TGI PANC-1 (PANC-1): 2.73E−06
- GI50 (SK-MEL-28): 0.0925 µM
- CC50 (SK-MEL-28): 1.37 µM
- TGI MEL-28 (SK-MEL-28): 2.69E−07
- GI50 (SK-BR-3): 0.0591 µM
- CC50 (SK-BR-3): 0.554 µM
- TGI SK-BR-3 (SK-BR-3): 1.42E−07
- GI50 (HT-29): 0.101 µM
- CC50 (HT-29): 28.6 µM
- TGI HT-29 (HT-29): 2.86E−07
- GI50 (HMEC1): 0.0164 µM
- TGI H-MEC-1 (HMEC1): 1.54E−08
- CC50 at 48 h [1]: 0.143 µM
- GI50 (LoVo-Dox): 0.078 µM
- CC50 (LoVo-Dox): 17.9 µM
- TGI LOVO-DOX (LoVo-Dox): 2.86E−07
- GI50 (IGROV-1): 0.0851 µM
- CC50 (IGROV-1): 2.12 µM
- TGI IGROV (IGROV-1): 3.28E−07
- GI50 (IGROV-ET): 0.0748 µM
- CC50 (IGROV-ET): 18.6 µM
- TGI IGROV-ET (IGROV-ET): 2.25E−07
- GI50 (K-562): 0.311 µM
- CC50 (K-562): 5.17 µM
- TGI K-562 (K-562): 4.03E−07
- GI50 (LoVo): 0.0774 µM
- CC50 (LoVo): 16 µM
- TGI LOVO (LoVo): 1.84E−07
- GI50 (A-549): 0.0999 µM
- CC50 (A-549): 4.57 µM
- TGI A-549 (A-549): 3.68E−07
- GI50 (LNCaP): 0.0737 µM
- CC50 (LNCaP): 0.286 µM
- TGI LN-caP (LNCaP): 1.27E−07

Compound: Nc1nccc(-c2c3cccnc3n3ccccc23)n1 [Compound 56]
- GI50 (SK-OV-3): 7.12 µM
- CC50 (SK-OV-3): 35.5 µM
- TGI SKOV-3 (SK-OV-3): 1.59E−05
- GI50 (DU-145): 2.12 µM
- CC50 (DU-145): 25.6 µM
- TGI DU-145 (DU-145): 8.88E−06
- GI50 (PANC-1): 8.96 µM
- CC50 (PANC-1): 38.3 µM
- TGI PANC-1 (PANC-1): 1.94E−05
- GI50 (SK-MEL-28): 7.73 µM
- CC50 (SK-MEL-28): 38.3 µM
- TGI MEL-28 (SK-MEL-28): 1.73E−05
- GI50 (SK-BR-3): 5.32 µM
- CC50 (SK-BR-3): 38.3 µM
- TGI SK-BR-3 (SK-BR-3): 1.88E−05
- GI50 (HT-29): 12.5 µM
- CC50 (HT-29): 38.3 µM
- TGI HT-29 (HT-29): 3.46E−05
- GI50 (HMEC1): 3.9 µM
- TGI H-MEC-1 (HMEC1): 9.34E−06
- CC50 at 48 h [1]: 22.3 µM
- GI50 (LoVo-Dox): 5.93 µM
- CC50 (LoVo-Dox): 38.3 µM
- TGI LOVO-DOX (LoVo-Dox): 1.66E−05
- GI50 (IGROV-1): 8.69 µM
- CC50 (IGROV-1): 38.3 µM
- TGI IGROV (IGROV-1): 1.91E−05
- GI50 (IGROV-ET): 11.5 µM
- CC50 (IGROV-ET): 38.3 µM
- TGI IGROV-ET (IGROV-ET): 2.35E−05
- GI50 (K-562): 8.23 µM
- CC50 (K-562): 38.3 µM
- TGI K-562 (K-562): 1.83E−05
- GI50 (LoVo): 6.74 µM
- CC50 (LoVo): 38.3 µM
- TGI LOVO (LoVo): 1.63E−05
- GI50 (A-549): 6.28 µM
- CC50 (A-549): 34.9 µM
- TGI A-549 (A-549): 1.48E−05
- GI50 (LNCaP): 5.93 µM
- CC50 (LNCaP): 20.6 µM
- TGI LN-caP (LNCaP): 1.11E−05

Source: patent US7772241B2, “Variolin derivatives and their use as antitumor agents” (Pharma Mar S.A., priority 2001, dated 2010)
